Measured values reported in ChEMBL document CHEMBL1132815, “16Beta-hydroxy-5alpha-cholestane-3,6-dione, a novel cytotoxic oxysterol from the red alga Jania rubens” (2000).
Converted amounts (≈) assume the structure as drawn.

Tests used:
KB [1] = assay: Cytotoxicity (dichloromethane extract) was evaluated against KB tumor cell line; assay type: functional; settings: Homo sapiens, read-out: ID50 (the source's name)
KB [2] = assay: Cytotoxicity (extracted with dichloromethane-methanol) was evaluated against KB tumor cell line; assay type: functional; settings: Homo sapiens, read-out: ID50 (the source's name)

## CC(C)CCC[C@@H](C)[C@H]1[C@@H](O)C[C@H]2[C@@H]3CC(=O)[C@H]4CC(=O)CC[C@]4(C)[C@H]3CC[C@]12C
KB [1]
  IC50: 5 µg/mL (≈ 12 µM)
KB [2]
  IC50: 0.5 µg/mL (≈ 1.2 µM)
